This passage reports inhibition and Ki results from US20240016941A1, “COMBINATION THERAPY” (priority 2020, published 2024).

As usually defined, the Ki is a measure of affinity in units of concentration, obtained from inhibition or displacement. A high value points to lower affinity.

What all share (type): biochemical
For experiment [1], the target named is T1, LasB elastase activity of dialysed supernatant from P. aeruginosa PAO1 (Pseudomonas aeruginosa, UniProt P14756).
T1 construct: Culture supernatants are recovered by centrifugation and filtrated through a 0.22 μM filter; endogenous in cells; host or cells: P. aeruginosa strain PAO1, culture supernatant, filtered and dialysed
T1 sequence (P14756 198-498): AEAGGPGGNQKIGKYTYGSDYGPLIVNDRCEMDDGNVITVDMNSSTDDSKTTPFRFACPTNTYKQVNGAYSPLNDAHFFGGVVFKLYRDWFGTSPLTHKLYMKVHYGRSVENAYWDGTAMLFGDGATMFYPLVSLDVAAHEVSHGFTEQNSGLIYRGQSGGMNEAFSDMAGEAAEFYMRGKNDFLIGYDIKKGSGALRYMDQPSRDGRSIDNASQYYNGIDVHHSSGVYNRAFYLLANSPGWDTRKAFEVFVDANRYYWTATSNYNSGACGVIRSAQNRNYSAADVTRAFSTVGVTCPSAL
Put plainly: Elastin Congo-Red assay to determine % inhibition (dialysed PAO1 supernatant). The conditions noted are these: read-out: Elastin hydrolysis % inhibition @ 25 μM inhibitor concentration. As to the method: (§1) Experiments were therefore conducted (1) to measure the potency of inhibition of compounds of the invention against purified Pseudomonas aeruginosa LasB enzyme and also experiments were conducted (2) to measure the ability of compounds of the invention to inhibit LasB-catalysed elastin degradation. The first assay uses a commercial fluorescent synthetic peptide and purified LasB enzyme. The LasB hydrolysis kinetics are measured allowing the determination of the IC50 and Ki of the inhibitors; the second is a more physiological assay using dialysed Pseudomonas aeruginosa supernatant as source of enzyme, plus its natural substrate Elastin. It is an “end point assay” that determines the percentage of LasB inhibition by each compound for one particular time point and inhibitor concentration. Technical details are described below:
The Elastin assay uses as source of enzyme dialysed supernatant from P. aeruginosa PAO1 and the Elastin Congo-Red as substrate. The natural LasB substrate, elastin, is complexed with the congo-red dye (Elastin Congo-Red, ECR). The elastolysis activity from the culture supernatant will degrade elastin and release the congo-red dye into the supernatant. This red dye release can be measured with a spectrophotometer.
Method: To determine LasB elastase activity and assess compound inhibition, an overnight culture of P. aeruginosa strain PAO1 is diluted in LB medium. After reaching an OD600nm of 0.6, this culture is diluted and incubated for additional 18-24 hours in a shaking incubator. Culture supernatants are recovered by centrifugation and filtrated through a […] filter. These supernatants are dialysed (filtration molecules <20 kDa) into a 50 mM Tris-HCl pH 7.4, 2.5 mM CaCl2 solution at 4° C. under agitation for 24 hours. Supernatant dialysed is then mixed volume/volume with the ECR suspension (20 mg/mL of ECR in 100 mM Tris-HCl pH 7.4 buffer supplemented with 1 mM CaCl2)) supplemented with Triton X100 (final concentration of 0.01%) in presence of DMSO (positive control) and/or different concentrations of compound (routinely 50 to 1.56 μM). As a negative control, the dialysed supernatant is replaced by Tris-HCl solution (50 mM Tris-HCl pH 7.4, 2.5 mM CaCl2). The mixed reaction is then incubated overnight in a 37° C. shaking incubator. The reaction supernatant is recovered by centrifugation and the release of congo-red is measured by its absorbance at 495 nm (OD495nm).
Percentage inhibition is determined using the following equation:
((OD495 nm value of positive control−OD495nm value of negative control)−(OD495nm value of treated supernatant−OD495nm value of negative control))/(OD495nm value of positive control−OD495nm value of negative control)×100.

Experiment [2] deals with T2, purified LasB protein from P. aeruginosa (Pseudomonas aeruginosa, UniProt P14756).
T2 construct: purchased Merck or Charles River Laboratories
T2 sequence (P14756 198-498): as above
Put plainly: Fluorometric assay to determine Ki (purified LasB, Abz-Ala-Gly-Leu-Ala-p-Nitro-Benzyl-Amide substrate). As to the method: as §1
This assay uses commercially available substrate (Abz-Ala-Gly-Leu-Ala-p-Nitro-Benzyl-Amide (Ex: 340 nm, Em: 415 nm) from Peptide International) and purified LasB protein from P. aeruginosa (provided by Merck or Charles River Laboratories). It is performed to determine LasB elastase activity and assess compound inhibition in 96-well plate format. All compounds of Formula (I) were assessed using the method described below.
Method: 10 to 140 ng/ml purified LasB is incubated with 250 μM Abz-Ala-Gly-Leu-Ala-p-Nitro-Benzyl-Amide in 50 mM Tris-HCl pH 7.4, 2.5 mM CaCl2), 0.01% of Triton X100 at 37° C. LasB activity (corresponding to fluorescence emission induced by substrate hydrolysis) is measured over 30 min at 37° C. with a fluorescence plate reader such as the Perkin Elmer Envision or similar. Different range of inhibitor concentrations are routinely assessed depending of inhibitor potency from 0.0016 to 200 μM (2-fold dilutions series) in order to determine IC50.
The equation used to calculate the Ki from IC50 is: Ki=IC50/(1+([S]/Km)) where [S]=250 μM and Km=214 μM.

In the next experiment the target is purified LasB (Pseudomonas aeruginosa, UniProt P14756). As to the kind of experiment: Inhibition of LasB-mediated hydrolysis of pro-IL-1β to IL-1β (FRET peptide). The method, then: Hydrolysis of this FRET peptide was continuously monitored using a Victor multimode plate reader (Perkin Elmer) with excitation 355 nm and emission at 450 nm in the presence of varying concentrations of compounds of the invention. Inhibitory constants (Ki) were determined for certain compounds of the invention (at least 2 independent replicates) using a competitive inhibitor model.
Chain of purified LasB (P14756 198-498): as above

Regarding `COc1cc2sc(CNC(=O)C3(CC(=O)O)Cc4ccccc4C3)nc2cc1OCCN1CCOCC1` [Example 9, 2-[2-[[6-methoxy-5-(2-morpholinoethoxy)-1,3-benzothiazol-2-yl]methylcarbamoyl]indan-2-yl]acetic acid], the inhibition at 25 µM in experiment [1] was more than 80%. The inhibition constant (Ki) in experiment [2] was less than 50 nM; at purified LasB, 160 nM.
On the same counts, the results for `COc1cc2sc(CNC(=O)C3(CC(=O)O)Cc4cc(F)c(F)cc4C3)nc2cc1OCC1CCN(C)CC1` [Example 11, 2-[5,6-difluoro-2-[[6-methoxy-5-[(1-methyl-4-piperidyl)methoxy]-1,3-benzothiazol-2-yl]methylcarbamoyl]indan-2-yl]acetic acid] are more than 80%, less than 50 nM and 220 nM.
The matching figures for `COc1cc2sc(CNC(=O)C3(CC(=O)[O-])Cc4cc(F)c(F)cc4C3)nc2cc1OCCC[N+]1(C)CCCC1` [Example 19, 2-[5,6-difluoro-2-[[6-methoxy-5-[3-(1-methylpyrrolidin-1-ium-1-yl)propoxy]-1,3-benzothiazol-2-yl]methylcarbamoyl]indan-2-yl]acetate]: more than 80%, less than 50 nM and 270 nM.
For the compound `COc1cc2sc(CNC(=O)C3(CC(=O)[O-])Cc4cc(F)c(F)cc4C3)nc2cc1C(=O)N1CC([N+](C)(C)C)C1` [Example 43, 2-[5,6-difluoro-2-[[6-methoxy-5-[3-(trimethylammonio)azetidine-1-carbonyl]-1,3-benzothiazol-2-yl]methylcarbamoyl]indan-2-yl]acetate], the inhibition at 25 µM in experiment [1] was in the range of 60 to 80%. Besides, the Ki in experiment [2] was 50 to 200 nM.
The matching figures for `COc1cc2sc(CNC(=O)C3(CC(=O)O)Cc4ccccc4C3)nc2cc1S(=O)(=O)N1CCN(C)CC1` [Example 45, 2-[2-[[6-methoxy-5-(4-methylpiperazin-1-yl)sulfonyl-1,3-benzothiazol-2-yl]methylcarbamoyl]indan-2-yl]acetic acid]: 60 to 80% and 50 to 200 nM.
In the case of `COc1cc2sc(CNC(=O)C3(CC(=O)O)Cc4ccccc4C3)nc2cc1S(=O)(=O)N1CCC(N(C)C)CC1` [Example 46, 2-[2-[[5-[[4-(dimethylamino)-1-piperidyl]sulfonyl]-6-methoxy-1,3-benzothiazol-2-yl]methylcarbamoyl]indan-2-yl]acetic acid], the inhibition at 25 µM in experiment [1] lay in the range of 60 to 80%. For the same compound, the inhibitory constant (Ki) in experiment [2] was in the range of 50 to 200 nM.
The matching figures for `COc1cc2sc(CNC(=O)C3(CC(=O)[O-])Cc4ccccc4C3)nc2cc1S(=O)(=O)N1CCC([N+](C)(C)C)CC1` [Example 47, 2-[2-[[6-methoxy-5-[[4-(trimethylammonio)-1-piperidyl]sulfonyl]-1,3-benzothiazol-2-yl]methylcarbamoyl]indan-2-yl]acetate]: 60 to 80% and 50 to 200 nM.
On the same counts, the results for `N#Cc1ccc2nc(CNC(=O)C3(CC(=O)O)Cc4ccccc4C3)sc2c1` [Example 48, 2-[2-[(6-cyano-1,3-benzothiazol-2-yl)methylcarbamoyl]indan-2-yl]acetic acid] are 60 to 80% and 50 to 200 nM.
With `N#Cc1ccc2sc(CNC(=O)C3(CC(=O)O)Cc4ccccc4C3)nc2c1` [Example 49, 2-[2-[(5-cyano-1,3-benzothiazol-2-yl)methylcarbamoyl]indan-2-yl]acetic acid], in experiment [1], the inhibition at 25 µM was in the range of 60 to 80%. Further, the Ki in experiment [2] was in the range of 50 to 200 nM.
As to `COc1cc2sc(CNC(=O)C3(CC(=O)[O-])Cc4cc(F)c(F)cc4C3)nc2cc1OCCOCC[N+](C)(C)C` [Example 55, 2-[5,6-difluoro-2-[[6-methoxy-5-[2-[2-(trimethylammonio)ethoxy]ethoxy]-1,3-benzothiazol-2-yl]methylcarbamoyl]indan-2-yl]acetate], the inhibitory constant (Ki) in experiment [2] was less than 50 nM; on purified LasB it was 420 nM.
